Data: publication PMC12097374 (Bioconjugate chemistry, 2017)

What was measured:
C6 rat glioma cells = experiment: Confocal cell imaging and displacement in live C6 rat glioma cells; format: cell-based; conditions: 0.1 μM probe 29, 100-fold higher concentration (10 μM) of competitor
TSPO = TSPO (Rattus norvegicus, UniProt P16257); conditions: cited from earlier work

SMILES | displacement of fluorescent probe 29 in C6 glioma cells (C6 rat glioma cells) | fold enhancement in affinity compared with DPA-714 (TSPO) [fold]
CCC(C)N(C)C(=O)c1cc2ccccc2c(-c2ccccc2Cl)n1 (stereo not drawn) [PK 11195] | completely displaced | 
CCc1cc(CC)n2nc(-c3ccc(OCCF)cc3)c(CC(=O)N(CC)CC)c2n1 [VUIIS 1008, 2-(5,7-diethyl-2-(4-(2-fluoroethoxy)phenyl)-pyrazolo[1,5-a]pyrimidin-3-yl)-N,N-diethylacetamide] | completely displaced | 36
